Laboratory results taken from patent publication US20250221413A1, “Use and Preparation Method of Sulfoxamyl, and Oxidation System” (priority 2023, published 2025).
Entries after “also recorded” stand apart in the source; their conditions may differ.

Assays:
[1] = Acute skin toxicity test (limit test); format: in vivo, SD rats; settings: both sexes, rat, in vivo, topical, 2000 mg/kg; SD rats, 24 h exposure, 14 days observation; read-out: acute percutaneous toxicity LD50
Protocol: (§1) Materials: the test agent 98% sulfoxamyl technical, batch number 20230708-1, was provided by Ningxia Hugerise Chemical Co., Ltd. Experimental animals: SPF-grade SD rats, half male and half female, weighing 180 g to 220 g, were provided by Jinan Pengyue Experimental Animal Breeding Co., Ltd., license number SCXK (Lu) 20190003. Rearing environment: the rats were housed in an SPF-grade animal room with free access to water and food, a temperature of 20° C. to 25° C., a humidity of 40% to 60%, and a 12 h/12 h light cycle. Feed: conventional pellet feed was provided by Jinan Pengyue Experimental Animal Breeding Co., Ltd.
(§2) The test was conducted in accordance with “Toxicological test methods of pesticides for registration, GB15670.5-2017”, “Acute toxicity test, GB15193.3-2003” and relevant acute toxicity research data.
(§3) Method: the sulfoxamyl was ground into powder, passed through a 200-mesh sieve, and fully moistened with 0.5% tragacanth solution to ensure desirable contact between the drug and the skin. The dose limit of the drug's transdermal toxicity was preliminarily determined through a limit test. According to the “Toxicological test methods of pesticides for registration, GB/T 15670.5-2017”, 2,000 mg/kg was selected as the dose limit. 10 SD rats were selected, half male and half female. After removing the fur and preparing the skin on the midline of the rats' backs, the prepared skin area was 36 cm^2 to 40 cm^2. The drug was evenly applied to the fur-removed area and covered and fixed with multiple layers of sterile gauze; after 24 h of exposure to the poison, the residual drug on the skin was removed; the rats were observed once a day for 14 consecutive days, and their poisoning reaction, development process, and death were recorded.

SD rats = experiment: Acute skin toxicity test (limit test); format: in vivo
Protocol: as §1, §2, §3

[2] = Half-life test (hydrolysis in neutral distilled water, HPLC); format: physicochemical
Source text: A 98% sulfoxamyl sample was quantitatively dissolved in neutral distilled water, and samples were taken and injected at certain time intervals under HPLC detection. Data were collected according to the area normalization method based on the integrated sulfoxamyl peak area ratio.

CNC(=O)O/N=C(/C(=O)N(C)C)S(C)(=O)=O [Sulfoxamyl, N,N-dimethyl-2-[[[(methylamino)carbonyl]oxy]imino]-2-(methylsulfonyl)acetamide]
LD50 at 14 days [1]: > 2000 mg/kg
percutaneous toxicity, in words (SD rats; 2,000 mg/kg): no percutaneous toxicity
Main clinical symptom (SD rats; 2,000 mg/kg on skin, 10 SD rats): skin is intact, normal in color, and without redness or swelling
deaths (SD rats; 2,000 mg/kg on skin, 10 SD rats, 14 days): none of the 10 rats die
Main clinical symptom (SD rats; 2,000 mg/kg on skin, 10 SD rats, listed as sulfoxamyl): Normal
toxicity level (acute percutaneous) (SD rats; GB15670-1995 classification): low toxic; also recorded: Low Toxicity
time to complete decomposition ([2]; neutral conditions): about 8 h
Changes in ratio of sulfoxamyl peak area under HPLC ([2]; neutral distilled water, 25° C., Time 0 h): 99.86%
Changes in ratio of sulfoxamyl peak area under HPLC ([2]; neutral distilled water, 25° C., Time 0.5 h): 73%
Changes in ratio of sulfoxamyl peak area under HPLC ([2]; neutral distilled water, 25° C., Time 1 h): 63%
Changes in ratio of sulfoxamyl peak area under HPLC ([2]; neutral distilled water, 25° C., Time 2 h): 48%
Changes in ratio of sulfoxamyl peak area under HPLC ([2]; neutral distilled water, 25° C., Time 3 h): 32%
Changes in ratio of sulfoxamyl peak area under HPLC ([2]; neutral distilled water, 25° C., Time 4 h): 20%
Changes in ratio of sulfoxamyl peak area under HPLC ([2]; neutral distilled water, 25° C., Time 5 h): 11%
Changes in ratio of sulfoxamyl peak area under HPLC ([2]; neutral distilled water, 25° C., Time 6 h): 5%
Changes in ratio of sulfoxamyl peak area under HPLC ([2]; neutral distilled water, 25° C., Time 7 h): 4%
Changes in ratio of sulfoxamyl peak area under HPLC ([2]; neutral distilled water, 25° C., Time 8 h): 3%
half-life ([2]; neutral distilled water, neutral aqueous solution, 25° C.): 2 h
